# In patent US20200038415A1, “AMINOSTEROL COMPOSITIONS AND METHODS OF USING THE SAME FOR TREATING ERECTILE DYSFUNCTION” (Enterin, Inc., priority 2018, published 2020):
# Tests used:
# [1] = in vivo; cited from earlier work
# [2] = Pharmacokinetics of orally administered squalamine (ENT-01) in Stage 1; type: in vivo, human; conditions: oral, active zwitterion
# Procedure: PK data were collected on the 10 patients enrolled in Stage 1 and 10 patients enrolled in Stage 2 to determine the extent of systemic absorption. In Stage 1, PK data were obtained at each visit, pre-medication, at 1, 2, 4, 8 and 24 hours (Table 10). In Stage 2, PK was measured on days 1 and 6 of the randomization period pre-medication, at 1, 2, 4 and 8 hours (Table 11).
# The mean Cmax, Tmax and T1/2 and AUC of the squalamine ion following squalamine (ENT-01) oral dosing for Stage 1 patients. The PK analyses are only approximate, as the lower limit of the validated concentration range was 10 ng/ml; most of the measured concentrations fell below that value. The mean Cmax, Tmax and T1/2 and AUC of the squalamine ion following squalamine (ENT-01) oral dosing for Stage 2 patients. The PK analyses are only approximate, as the lower limit of the validated concentration range was 0.5 ng/ml.
# [3] = tested on: IPANs (intrinsic primary afferent neuron); conditions: perfusion through lumen of isolated bowel segment, PD mouse model; cited from earlier work
# [4] = systemic administration; into the duodenum through the biliary tract (in mice); cited from earlier work
# [5] = cited from earlier work
# mouse models of PD = conditions: oral; mice with constipation due to overexpression of human αS (West et al, in preparation); cited from earlier work
# [6] = prior studies, cited from earlier work
SMILES,known pharmacological effects [1],systemic absorption [2],effect on IPANs of the ENS [3],clearance and excretion [4],"well tolerated intravenous dose ([5]; dilactate salt, single and repeat intravenous administration, Phase 1 and Phase 2 trials)","drug related GI toxicology ([5]; published clinical trials, systemic administration)",gastro-intestinal motility (mouse models of PD),gastrointestinal motility after intravenous administration ([6]; intravenous),"systemic blood levels, intravenous versus orally administered [6]"
"CC(C)[C@@H](CC[C@@H](C)[C@H]1CC[C@H]2[C@@H]3[C@H](O)C[C@H]4C[C@@H](NCCCNCCCCNCCCN)CC[C@]4(C)[C@H]3CC[C@]12C)OS(=O)(=O)O [Aminosterol 1436, trodusquemine]",reduction in food intake and weight loss,–,–,–,–,–,–,–,–
CC(C)[C@@H](CC[C@@H](C)[C@H]1CC[C@H]2[C@@H]3[C@H](O)C[C@H]4C[C@@H](NCCCNCCCCN)CC[C@]4(C)[C@H]3CC[C@]12C)OS(=O)(=O)O [squalamine],"nausea, vomiting and/or reduced blood pressure",not significantly absorbed into the systemic circulation,excitation of IPANs,cleared by the liver and excreted as the intact molecule,at least 300 mg/m^2,has not been reported,stimulates gastro-intestinal motility,not associated with increased gastrointestinal motility,one thousand-fold greater
